Measurements as given in PubChem BioAssay AID1745844 (Carcinogenic Potency Database (CPDB), 2022).

System: rodent lifetime carcinogenesis bioassay, tumor incidence TD50
Test: chronic cancer bioassays in animals – CPDB, compiled studies (AID 1745844)
Settings: in feed

## Nc1c(Br)cc(Br)c2c1C(=O)c1ccccc1C2=O
mouse, strain B6C3F1, females, site: any site (literature study), lesion: several types, types named in the paper, dosed 104 weeks, study length 104 weeks
  TD50: 1030 mg/kg/day
mouse, strain B6C3F1, females, site: forestomach + liver + lung, lesion: squamous-cell carcinoma + squamous-cell papilloma + hepatocellular adenoma + hepatocellular carcinoma + alveolar/bronchiolar ade, dosed 104 weeks, study length 104 weeks
  TD50: 546 mg/kg/day
mouse, strain B6C3F1, females, site: forestomach, lesion: squamous-cell carcinoma + squamous-cell papilloma, dosed 104 weeks, study length 104 weeks
  TD50: 1230 mg/kg/day
mouse, strain B6C3F1, females, site: forestomach, lesion: squamous-cell carcinoma, dosed 104 weeks, study length 104 weeks
  TD50: 3930 mg/kg/day
mouse, strain B6C3F1, females, site: forestomach, lesion: squamous-cell papilloma, dosed 104 weeks, study length 104 weeks
  TD50: 1760 mg/kg/day
mouse, strain B6C3F1, females, site: liver, lesion: hepatocellular adenoma + hepatoblastoma + hepatocellular carcinoma, dosed 104 weeks, study length 104 weeks
  TD50: 490 mg/kg/day
mouse, strain B6C3F1, females, site: liver, lesion: hepatocellular adenoma + hepatocellular carcinoma, dosed 104 weeks, study length 104 weeks
  TD50: 490 mg/kg/day
mouse, strain B6C3F1, females, site: liver, lesion: hepatocellular adenoma, dosed 104 weeks, study length 104 weeks
  TD50: 515 mg/kg/day
mouse, strain B6C3F1, females, site: liver, lesion: hepatocellular carcinoma, dosed 104 weeks, study length 104 weeks
  TD50: 1530 mg/kg/day
mouse, strain B6C3F1, females, site: lung, lesion: alveolar/bronchiolar adenoma + alveolar/bronchiolar carcinoma, dosed 104 weeks, study length 104 weeks
  TD50: 1990 mg/kg/day
mouse, strain B6C3F1, females, site: lung, lesion: alveolar/bronchiolar adenoma, dosed 104 weeks, study length 104 weeks
  TD50: 1990 mg/kg/day
mouse, strain B6C3F1, females, site: pituitary gland, lesion: pars distalis adenoma, dosed 104 weeks, study length 104 weeks
  TD50: 3750 mg/kg/day
mouse, strain B6C3F1, females, site: uterus, lesion: endometrial stromal polyp + endometrial stromal sarcoma, dosed 104 weeks, study length 104 weeks
  TD50: 6820 mg/kg/day
mouse, strain B6C3F1, males, site: any site (literature study), lesion: several types, types named in the paper, dosed 103 weeks, study length 104 weeks
  TD50: 566 mg/kg/day
mouse, strain B6C3F1, males, site: forestomach + liver + lung, lesion: squamous-cell carcinoma + squamous-cell papilloma + hepatocellular adenoma + hepatoblastoma + hepatocellular carcinoma + alveolar/, dosed 103 weeks, study length 104 weeks
  TD50: 465 mg/kg/day
mouse, strain B6C3F1, males, site: forestomach, lesion: squamous-cell carcinoma + squamous-cell papilloma, dosed 103 weeks, study length 104 weeks
  TD50: 1130 mg/kg/day
mouse, strain B6C3F1, males, site: forestomach, lesion: squamous-cell carcinoma, dosed 103 weeks, study length 104 weeks
  TD50: 2730 mg/kg/day
mouse, strain B6C3F1, males, site: forestomach, lesion: squamous-cell papilloma, dosed 103 weeks, study length 104 weeks
  TD50: 1680 mg/kg/day
mouse, strain B6C3F1, males, site: liver, lesion: hepatoblastoma + hepatocellular carcinoma, dosed 103 weeks, study length 104 weeks
  TD50: 1870 mg/kg/day
mouse, strain B6C3F1, males, site: liver, lesion: hepatoblastoma, dosed 103 weeks, study length 104 weeks
  TD50: 9250 mg/kg/day
mouse, strain B6C3F1, males, site: liver, lesion: hepatocellular adenoma + hepatoblastoma + hepatocellular carcinoma, dosed 103 weeks, study length 104 weeks
  TD50: 467 mg/kg/day
mouse, strain B6C3F1, males, site: liver, lesion: hepatocellular adenoma + hepatocellular carcinoma, dosed 103 weeks, study length 104 weeks
  TD50: 467 mg/kg/day
mouse, strain B6C3F1, males, site: liver, lesion: hepatocellular adenoma, dosed 103 weeks, study length 104 weeks
  TD50: 464 mg/kg/day
mouse, strain B6C3F1, males, site: liver, lesion: hepatocellular carcinoma, dosed 103 weeks, study length 104 weeks
  TD50: 2240 mg/kg/day
mouse, strain B6C3F1, males, site: lung, lesion: alveolar/bronchiolar adenoma + alveolar/bronchiolar carcinoma, dosed 103 weeks, study length 104 weeks
  TD50: 817 mg/kg/day
mouse, strain B6C3F1, males, site: lung, lesion: alveolar/bronchiolar adenoma, dosed 103 weeks, study length 104 weeks
  TD50: 831 mg/kg/day
rat, strain Fischer 344, females, site: any site (literature study), lesion: several types, types named in the paper, dosed 40 weeks, study length 66 weeks
  TD50: 135 mg/kg/day
rat, strain Fischer 344, females, site: any site (literature study), lesion: several types, types named in the paper, dosed 66 weeks, study length 66 weeks
  TD50: 147 mg/kg/day
rat, strain Fischer 344, females, site: any site (literature study), lesion: several types, types named in the paper, dosed 103 weeks, study length 104 weeks
  TD50: 160 mg/kg/day
rat, strain Fischer 344, females, site: cecum + colon + kidney + liver + rectum + urinary bladder, lesion: polypoid adenoma + adenocarcinoma + tubule adenoma + tubule carcinoma + hepatocholangiocarcinoma + hepatocellular adenoma + hepatoce, dosed 103 weeks, study length 104 weeks
  TD50: 31 mg/kg/day
rat, strain Fischer 344, females, site: cecum + colon + rectum, lesion: polypoid adenoma, dosed 40 weeks, study length 66 weeks
  TD50: 217 mg/kg/day
rat, strain Fischer 344, females, site: cecum + colon + rectum, lesion: polypoid adenoma, dosed 66 weeks, study length 66 weeks
  TD50: 1270 mg/kg/day
rat, strain Fischer 344, females, site: cecum + colon + rectum, lesion: polypoid adenoma, dosed 103 weeks, study length 104 weeks
  TD50: 72.9 mg/kg/day
rat, strain Fischer 344, females, site: colon + rectum, lesion: adenocarcinoma, dosed 103 weeks, study length 104 weeks
  TD50: 414 mg/kg/day
rat, strain Fischer 344, females, site: kidney, lesion: tubule adenoma + tubule carcinoma, dosed 40 weeks, study length 66 weeks
  TD50: 418 mg/kg/day
rat, strain Fischer 344, females, site: kidney, lesion: tubule adenoma + tubule carcinoma, dosed 66 weeks, study length 66 weeks
  TD50: 1520 mg/kg/day
rat, strain Fischer 344, females, site: kidney, lesion: tubule adenoma + tubule carcinoma, dosed 103 weeks, study length 104 weeks
  TD50: 388 mg/kg/day
rat, strain Fischer 344, females, site: kidney, lesion: tubule adenoma, dosed 40 weeks, study length 66 weeks
  TD50: 418 mg/kg/day
rat, strain Fischer 344, females, site: kidney, lesion: tubule adenoma, dosed 66 weeks, study length 66 weeks
  TD50: 1520 mg/kg/day
rat, strain Fischer 344, females, site: kidney, lesion: tubule adenoma, dosed 103 weeks, study length 104 weeks
  TD50: 388 mg/kg/day
rat, strain Fischer 344, females, site: liver, lesion: hepatocellular adenoma + hepatoblastoma + hepatocellular carcinoma, dosed 40 weeks, study length 66 weeks
  TD50: 121 mg/kg/day
rat, strain Fischer 344, females, site: liver, lesion: hepatocellular adenoma + hepatoblastoma + hepatocellular carcinoma, dosed 66 weeks, study length 66 weeks
  TD50: 121 mg/kg/day
rat, strain Fischer 344, females, site: liver, lesion: hepatocellular adenoma + hepatoblastoma + hepatocellular carcinoma, dosed 103 weeks, study length 104 weeks
  TD50: 40.1 mg/kg/day
rat, strain Fischer 344, females, site: liver, lesion: hepatocellular adenoma + hepatocellular carcinoma, dosed 40 weeks, study length 66 weeks
  TD50: 121 mg/kg/day
rat, strain Fischer 344, females, site: liver, lesion: hepatocellular adenoma + hepatocellular carcinoma, dosed 66 weeks, study length 66 weeks
  TD50: 121 mg/kg/day
rat, strain Fischer 344, females, site: liver, lesion: hepatocellular adenoma + hepatocellular carcinoma, dosed 103 weeks, study length 104 weeks
  TD50: 40.1 mg/kg/day
rat, strain Fischer 344, females, site: liver, lesion: hepatocellular adenoma, dosed 40 weeks, study length 66 weeks
  TD50: 191 mg/kg/day
rat, strain Fischer 344, females, site: liver, lesion: hepatocellular adenoma, dosed 66 weeks, study length 66 weeks
  TD50: 219 mg/kg/day
rat, strain Fischer 344, females, site: liver, lesion: hepatocellular adenoma, dosed 103 weeks, study length 104 weeks
  TD50: 53.9 mg/kg/day
rat, strain Fischer 344, females, site: liver, lesion: hepatocellular carcinoma, dosed 40 weeks, study length 66 weeks
  TD50: 167 mg/kg/day
rat, strain Fischer 344, females, site: liver, lesion: hepatocellular carcinoma, dosed 66 weeks, study length 66 weeks
  TD50: 124 mg/kg/day
rat, strain Fischer 344, females, site: liver, lesion: hepatocellular carcinoma, dosed 103 weeks, study length 104 weeks
  TD50: 88.4 mg/kg/day
